Results as given in patent publication US7736624B2, “Methods and compositions for diagnostic and therapeutic targeting of COX-2” (priority 2006, dated 2010).
pIC50: −log10 of the molar value.

What was measured:
ovine COX-1 = biological target: T1, ovine COX-1 (Ovis aries, UniProt P05979); test: IC50 determinations using purified enzymes (TLC assay), COX-1; format: biochemical; settings: assayed against purified enzymes
T1 construct: can be purified from ovine seminal vesicles by standard procedures; from tissue; host or cells: ovine seminal vesicles
T1 sequence (P05979 25-600): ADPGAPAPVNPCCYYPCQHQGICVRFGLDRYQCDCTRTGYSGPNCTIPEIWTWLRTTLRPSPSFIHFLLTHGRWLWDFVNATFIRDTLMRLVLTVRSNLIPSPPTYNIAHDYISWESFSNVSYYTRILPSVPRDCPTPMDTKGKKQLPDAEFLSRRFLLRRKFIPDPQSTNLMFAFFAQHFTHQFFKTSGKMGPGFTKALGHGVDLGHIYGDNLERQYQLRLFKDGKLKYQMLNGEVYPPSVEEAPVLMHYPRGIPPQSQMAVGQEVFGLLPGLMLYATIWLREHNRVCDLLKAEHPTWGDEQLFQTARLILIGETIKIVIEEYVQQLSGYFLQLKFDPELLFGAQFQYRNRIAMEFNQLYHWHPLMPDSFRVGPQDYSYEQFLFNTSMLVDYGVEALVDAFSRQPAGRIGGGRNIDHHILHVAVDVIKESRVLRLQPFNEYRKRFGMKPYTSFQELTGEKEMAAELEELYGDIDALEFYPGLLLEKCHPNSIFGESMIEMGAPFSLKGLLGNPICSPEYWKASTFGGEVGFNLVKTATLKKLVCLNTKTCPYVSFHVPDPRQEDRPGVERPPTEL

COX-1 = biological target: T2, COX-1 (Mus musculus, UniProt P22437); test: Macrophage assay (RAW264.7), COX-1; format: cell-based, murine; settings: for pIC50: Table 3, macrophage assay
T2 sequence (P22437 1-602): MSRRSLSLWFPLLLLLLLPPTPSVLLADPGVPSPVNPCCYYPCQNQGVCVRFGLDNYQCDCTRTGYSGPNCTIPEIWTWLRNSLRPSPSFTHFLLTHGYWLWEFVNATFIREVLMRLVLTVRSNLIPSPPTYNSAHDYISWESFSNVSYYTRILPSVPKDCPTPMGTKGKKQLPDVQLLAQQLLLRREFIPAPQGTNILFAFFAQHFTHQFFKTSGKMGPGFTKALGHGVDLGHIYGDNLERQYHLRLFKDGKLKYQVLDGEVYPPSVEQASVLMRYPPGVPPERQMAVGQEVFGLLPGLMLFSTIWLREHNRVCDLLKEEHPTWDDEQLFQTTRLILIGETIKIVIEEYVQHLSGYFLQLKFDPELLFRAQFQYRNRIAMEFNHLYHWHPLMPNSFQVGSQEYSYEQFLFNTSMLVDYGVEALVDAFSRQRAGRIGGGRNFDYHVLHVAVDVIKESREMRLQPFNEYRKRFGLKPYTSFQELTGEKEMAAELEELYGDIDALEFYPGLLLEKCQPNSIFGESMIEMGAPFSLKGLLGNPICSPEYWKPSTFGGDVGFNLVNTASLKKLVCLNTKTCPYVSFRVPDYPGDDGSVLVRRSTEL
From the text: Thus, NSAID derivatives that are identified as potentially useful in the methods described herein can be further tested using, for example, the RAW264.7 murine macrophage cell line. These cells are readily available (for example, from the American Type Culture Collection (ATCC), Manassas, Va., United States of America) and are easily cultured in large numbers. They normally express low levels of COX-1 and very low to undetectable levels of COX-2. Upon exposure to bacterial lipopolysaccharide (LPS), however, COX-2 levels increase dramatically over the ensuing 24 hour period, and the cells produce PGD2 and PGE2 from endogenous arachidonic acid stores (generally, ˜1 nmol/10^7 cells total PG formation). After LPS exposure, the addition of exogenous arachidonic acid results in the formation of additional PGD2 and PGE2 as a result of metabolism by the newly synthesized COX-2.
This system provides a number of approaches for testing the inhibitory potency of COX-2-selective ligands (e.g., inhibitors). In general, following LPS activation, cells can be treated for 30 minutes with the desired concentrations of candidate derivative(s) in DMSO. ^14C-arachidonic acid can be added, and the cells can be incubated for 15 minutes at 37° C. Product formation can be assessed following extraction and TLC separation of the culture medium. Alternatively, the effects of candidate derivatives on PG synthesis from endogenous arachidonic acid can be assessed by incubating cells with desired concentrations of candidate derivatives 30 minutes prior to LPS exposure. Following a 24-hour incubation, medium can be collected and extracted, and the amount of PGD2 and/or PGE2 can be assayed by gas chromatography-mass spectrometry, liquid chromatography-mass spectrometry, or ELISA.

Q: How did the pIC50 (ovine COX-1; Table 3) turn out when COc1ccc2c(c1)c(CC(=O)NCCNS(=O)(=O)c1ccc(/N=N/c3ccc(N(C)C)cc3)cc1)c(C)n2C(=O)c1ccc(Cl)cc1 [Compound 27aa, N-(2-Dabsylaminoethyl)-2-{1-(4-chlorobenzoyl)-5-methoxy-2-methyl-1H-indol-3-yl}acetamide] was run?
A: < 4.60

Q: And the pIC50 (COX-1)?
A: < 5.60

Q: COc1ccc2c(c1)c(CC(=O)NCCCCNC(=O)c1ccc(C3=c4cc5c6c(c4Oc4c3cc3c7c4CCCN7CCC3)CCC[N+]=6CCC5)c(C(=O)[O-])c1)c(C)n2C(=O)c1ccc(Cl)cc1 [Compound 27eee] was tested. Which pIC50 (ovine COX-1; Table 3) did it give?
A: < 4.60

Q: What about the pIC50 (COX-1) of the same compound?
A: < 5.30

Q: COc1ccc2c(c1)c(CC(=O)NCCCCNC(=O)Cc1ccc(Nc3ccc([N+](=O)[O-])c4nonc34)cc1)c(C)n2C(=O)c1ccc(Cl)cc1 [Compound 27ii, N-([2-{4-(7-nitrobenzo[1,2,5]oxadiazol-4-ylamino)phenyl}acetamido]but-4-yl)-2-{1-(4-chlorobenzoyl)-5-methoxy-2-methyl-1H-indol-3-yl]acetamide] was tested. Which pIC50 (ovine COX-1; Table 3) did it give?
A: < 4.60

Q: What about the pIC50 (COX-1) of the same compound?
A: < 5.00

Q: What does the source list for COc1ccc2c(c1)c(CC(=O)NCCCCNC(=O)c1ccc(C(=O)O)c(-c3c4ccc(=O)cc-4oc4cc(O)ccc34)c1)c(C)n2C(=O)c1ccc(Cl)cc1 [Compound 27qq, N-[(Fluorescein-6-carboxylamido)but-4-yl]-2-[1-(4-chlorobenzoyl)-5-methoxy-2-methyl-1H-indol-3-yl)acetamide]?
A: pIC50 (ovine COX-1; Table 3): < 4.60; pIC50 (COX-1): < 5.30

Q: What does the source list for CC[N+](CC)=c1ccc2c(-c3ccccc3)c(C)c(/C=C/C=C3/N(CCCCCC(=O)NCCCCNC(=O)Cc4c(C)n(C(=O)c5ccc(Cl)cc5)c5ccc(OC)cc45)c4ccc(S(=O)(=O)[O-])cc4C3(C)C)oc-2c1 [Compound 27ttt]?
A: pIC50 (ovine COX-1; Table 3): < 4.60; pIC50 (COX-1): < 5.30

Q: With CC[N+](CC)=c1ccc2nc3c(cc(NC(=O)CCOCCOCCOCCOCCNC(=O)Cc4c(C)n(C(=O)c5ccc(Cl)cc5)c5ccc(OC)cc45)c4ccccc43)oc-2c1 [Compound 27uu, N-[5-)1-{1-(4-chlorobenzoyl)-5-methoxy-2-methyl-1H-indol-3-yl}-2-6,9,12,15-tetraoxa-3-azaoctadecanamido]-9H-benzo[a]penoxazin-9-ylidene)-N-ethylethanaminium perchlorate] as the compound, how does the pIC50 (ovine COX-1; Table 3) read?
A: < 4.60

Q: And the pIC50 (COX-1)?
A: < 4.60

Q: Which results are given for COc1ccc2c(c1)c(CC(=O)NCCCCNC(=O)c1ccc(C(=O)[O-])c(C3=c4cc5c6c(c4Oc4c3cc3c7c4CCCN7CCC3)CCC[N+]=6CCC5)c1)c(C)n2C(=O)c1ccc(Cl)cc1 [Compound 27vv]?
A: pIC50 (ovine COX-1; Table 3): < 4.60; pIC50 (COX-1): < 5.30

Q: Which results are given for COc1ccc2c(c1)c(CC(=O)NCCNS(=O)(=O)c1cccc3c(N(C)C)cccc13)c(C)n2C(=O)c1ccc(Cl)cc1 [Compound 27x]?
A: pIC50 (ovine COX-1; Table 3): < 4.60; pIC50 (COX-1): < 6.00

Q: How did the pIC50 (ovine COX-1; Table 2) turn out when COC(=O)c1cc(-c2ccc(C)cc2)n(-c2ccc(S(N)(=O)=O)cc2)n1 [Compound 30b] was run?
A: < 4.60

Q: What about the IC50 (COX-1; Table 2, macrophage assay (M)) of the same compound?
A: > 5e-06 M
